In patent publication US20030152562A1, “Vitro micro-organs, and uses related thereto” (Yissum Research Development Company of the Hebrew …, priority 2001, published 2003):
“Also recorded” adds a separate entry of the source.

Assays:
Assay type in all cases: cell-based
[1] = tested on: New born mouse skin; assay: Hair shaft growth in new born mouse skin micro-organ cultures; conditions: skin from 30 hr-old mouse, 3 days in culture, 1 ng/ml EGF
Experimental: New born mouse skin was obtained after surgery, cleaned of underlying fat tissue and cut into 0.4×5 cm flaps, which were then transversely sectioned, using a tissue chopper or other suitable cutting devise into 300 μm sections. The micro-organs were placed in microplates in DMEM in the absence of serum under 5% CO2 at 37° C. under constant shaking for periods of 1 to 14 days. Certain of the micro-organ explants were contacted with a growth factor, e.g., FGF, which was added to the culture media. The medium was changed every 2 days.
New born “hairless” skin can be induced to produce hair shafts when grown in MC cultures.

[2] = tested on: epidermal cells; assay: Inhibition of proliferation of epidermal cells
[3] = tested on: guinea-pig skin cultures; assay: BrdU labeling assay of cell proliferation (DNA synthesis) in skin micro-organ cultures; conditions: FIG. 12
Experimental: Fresh skin was obtained after surgery, cleaned from underlying fat tissue and cut into 0.4×5 cm flaps, which are then transversely sectioned, using a tissue chopper or other suitable cutting means into 300 μm sections under sterile conditions so that the final tissue segments had dimensions of 4 mm in width and 0.3 mm in thickness (see FIG. 1). These micrograns were placed in a 24-well microplate in 400 μl of DMEM in the absence of serum under 5% CO2 at 37° C., under constant shaking at 12 rpm for periods of one to eight days. Twenty micro-explants were grown per well.
Micro-organ cultures were prepared according to Example I and proliferation of the cells was measured by analyzing the amount of DNA synthesis as follows. […]
The cultures were prepared and maintained in defined medium in similar growth conditions as described in Example I. Control samples were analyzed by immunocytochemistry to determine that the micro-organ culture was maintained in a manner that was similar to that occurring in vivo.
Duplicated samples of skin micro-cultures were treated with TGF-β at 2.5 ng/ml. A quantitative analysis of the number of BrdU labeled cells/explant was performed according to Example II.

## EGF: epidermal growth factor added to culture medium (NSDSECPLSHDGYCLHDGVCMYIEALDKYACNCVVGYIGERCQYRDLKWWELR; UniProt P01133 971-1023, looked up)
[1]
  hair shaft development in explants: development of hair shafts in the explants

## Activin
[2]
  effect on proliferation of epidermal cells: inhibit proliferation of epidermal cells

## TGF-β
[3]; 2.5 ng/ml, guinea-pig skin cultures
  effect on cell proliferation / mitogenesis in skin micro-organ cultures: inhibitor of cell proliferation; also recorded: inhibition of mitogenesis
[3]; TGF-β at 2.5 ng/ml, skin micro-cultures in defined medium
  inhibition of DNA synthesis (number of BrdU labeled cells/explant) compared with controls: Greater than 90%
